Activity calls are given as the source filed them. The calls are words filed in the database; no cut-off is given here.
Legend:
[1] = biological target: Receptor tyrosine-protein kinase erbB-2 (Homo sapiens, UniProt P04626); experiment: Inhibition of HER2 overexpressed in mouse 3T3 cells by ELISA; assay type: cell-based, NIH3T3; details: for Activity: NIH3T3
[2] = biological target: Human immunodeficiency virus type 1 integrase (Human immunodeficiency virus 1) (UniProt Q7ZJM1); experiment: Inhibition of HIV1 integrase at 5 ug/ml by scintillation proximity assay
Human immunodeficiency virus type 1 integrase (Human immunodeficiency virus 1), sequence (Q7ZJM1 as listed by the source): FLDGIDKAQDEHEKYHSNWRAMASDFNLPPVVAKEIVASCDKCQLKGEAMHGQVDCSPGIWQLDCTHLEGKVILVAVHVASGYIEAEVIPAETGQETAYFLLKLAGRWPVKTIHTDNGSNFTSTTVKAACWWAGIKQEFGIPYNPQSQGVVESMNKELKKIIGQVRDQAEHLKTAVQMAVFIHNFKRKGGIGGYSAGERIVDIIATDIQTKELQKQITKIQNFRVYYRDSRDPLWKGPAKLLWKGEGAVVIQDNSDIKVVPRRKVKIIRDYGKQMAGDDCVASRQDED

[3] = biological target: Human immunodeficiency virus type 1 integrase (Human immunodeficiency virus 1) (UniProt Q7ZJM1); experiment: Inhibition of HIV1 integrase at 1 ug/ml by scintillation proximity assay
[4] = biological target: T1, Neuropeptide Y receptor type 1 (Rattus norvegicus) (UniProt P21555); experiment: (§1) Displacement of [3H]NPY from neuropeptide Y receptor in rat cerebral cortices
T1 sequence (whole entry): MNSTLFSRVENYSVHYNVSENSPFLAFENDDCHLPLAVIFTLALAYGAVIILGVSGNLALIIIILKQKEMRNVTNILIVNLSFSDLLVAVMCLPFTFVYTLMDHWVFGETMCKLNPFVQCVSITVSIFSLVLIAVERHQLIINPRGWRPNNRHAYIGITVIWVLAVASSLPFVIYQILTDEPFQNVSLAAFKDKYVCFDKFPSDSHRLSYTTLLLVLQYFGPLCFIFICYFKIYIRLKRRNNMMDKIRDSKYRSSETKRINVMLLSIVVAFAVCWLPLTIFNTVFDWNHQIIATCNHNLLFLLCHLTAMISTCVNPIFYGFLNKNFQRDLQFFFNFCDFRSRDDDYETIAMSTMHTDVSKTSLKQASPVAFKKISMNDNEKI

[5] = biological target: T2, VIP peptides (Homo sapiens) (UniProt P01282); experiment: Binding affinity to vasoactive intestinal peptide
T2 sequence (whole entry): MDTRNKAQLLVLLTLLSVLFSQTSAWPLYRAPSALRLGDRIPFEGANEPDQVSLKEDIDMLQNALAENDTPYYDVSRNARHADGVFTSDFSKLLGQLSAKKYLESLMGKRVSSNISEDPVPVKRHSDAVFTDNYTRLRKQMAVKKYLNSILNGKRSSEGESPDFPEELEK

[6] = biological target: T3, Neuromedin-K receptor (Homo sapiens) (UniProt P29371); experiment: Binding affinity to NK3 receptor
T3 sequence (whole entry): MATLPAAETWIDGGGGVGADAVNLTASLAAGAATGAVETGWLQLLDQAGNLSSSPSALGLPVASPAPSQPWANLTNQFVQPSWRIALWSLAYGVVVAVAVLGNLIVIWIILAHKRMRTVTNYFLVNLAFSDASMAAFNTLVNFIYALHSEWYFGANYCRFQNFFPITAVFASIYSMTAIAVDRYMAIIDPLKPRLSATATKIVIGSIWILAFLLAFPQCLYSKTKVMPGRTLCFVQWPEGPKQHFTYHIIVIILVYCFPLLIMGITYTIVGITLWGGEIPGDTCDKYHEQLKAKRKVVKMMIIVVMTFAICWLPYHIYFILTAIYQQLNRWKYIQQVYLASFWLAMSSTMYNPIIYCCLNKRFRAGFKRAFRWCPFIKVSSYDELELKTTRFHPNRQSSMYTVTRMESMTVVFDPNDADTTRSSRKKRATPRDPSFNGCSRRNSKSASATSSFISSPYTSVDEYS

Rattus norvegicus = species on record: Rattus norvegicus; experiment: Displacement of radioiodinated somatostatins from rat somatostatin receptor
[7] = biological target: T4, B2 bradykinin receptor (Homo sapiens) (UniProt P30411); experiment: Displacement of [3H]bradykinin from human bradykinin B2 receptor expressed in baculovirus-infected SF21 cells
T4 sequence (whole entry): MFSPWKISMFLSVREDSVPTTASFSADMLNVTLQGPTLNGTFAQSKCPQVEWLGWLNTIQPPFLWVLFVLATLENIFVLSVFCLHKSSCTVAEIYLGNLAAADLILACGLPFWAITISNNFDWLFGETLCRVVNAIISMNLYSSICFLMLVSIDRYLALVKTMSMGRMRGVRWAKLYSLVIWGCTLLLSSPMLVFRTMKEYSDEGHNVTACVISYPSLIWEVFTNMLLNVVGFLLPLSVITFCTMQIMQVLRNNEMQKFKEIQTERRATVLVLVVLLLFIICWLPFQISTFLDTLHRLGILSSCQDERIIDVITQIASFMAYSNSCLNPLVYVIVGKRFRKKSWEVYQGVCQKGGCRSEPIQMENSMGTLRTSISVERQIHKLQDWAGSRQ

[8] = Binding affinity to neurotensin receptor
[9] = Binding affinity to galanin receptor
[10] = biological target: T5, Neuropeptide Y receptor type 1 (Rattus norvegicus, UniProt P21555); experiment: as §1
T5 sequence (P21555 whole entry): T1 sequence (whole entry)

Receptor tyrosine-protein kinase erbB-2, sequence (P04626 whole entry): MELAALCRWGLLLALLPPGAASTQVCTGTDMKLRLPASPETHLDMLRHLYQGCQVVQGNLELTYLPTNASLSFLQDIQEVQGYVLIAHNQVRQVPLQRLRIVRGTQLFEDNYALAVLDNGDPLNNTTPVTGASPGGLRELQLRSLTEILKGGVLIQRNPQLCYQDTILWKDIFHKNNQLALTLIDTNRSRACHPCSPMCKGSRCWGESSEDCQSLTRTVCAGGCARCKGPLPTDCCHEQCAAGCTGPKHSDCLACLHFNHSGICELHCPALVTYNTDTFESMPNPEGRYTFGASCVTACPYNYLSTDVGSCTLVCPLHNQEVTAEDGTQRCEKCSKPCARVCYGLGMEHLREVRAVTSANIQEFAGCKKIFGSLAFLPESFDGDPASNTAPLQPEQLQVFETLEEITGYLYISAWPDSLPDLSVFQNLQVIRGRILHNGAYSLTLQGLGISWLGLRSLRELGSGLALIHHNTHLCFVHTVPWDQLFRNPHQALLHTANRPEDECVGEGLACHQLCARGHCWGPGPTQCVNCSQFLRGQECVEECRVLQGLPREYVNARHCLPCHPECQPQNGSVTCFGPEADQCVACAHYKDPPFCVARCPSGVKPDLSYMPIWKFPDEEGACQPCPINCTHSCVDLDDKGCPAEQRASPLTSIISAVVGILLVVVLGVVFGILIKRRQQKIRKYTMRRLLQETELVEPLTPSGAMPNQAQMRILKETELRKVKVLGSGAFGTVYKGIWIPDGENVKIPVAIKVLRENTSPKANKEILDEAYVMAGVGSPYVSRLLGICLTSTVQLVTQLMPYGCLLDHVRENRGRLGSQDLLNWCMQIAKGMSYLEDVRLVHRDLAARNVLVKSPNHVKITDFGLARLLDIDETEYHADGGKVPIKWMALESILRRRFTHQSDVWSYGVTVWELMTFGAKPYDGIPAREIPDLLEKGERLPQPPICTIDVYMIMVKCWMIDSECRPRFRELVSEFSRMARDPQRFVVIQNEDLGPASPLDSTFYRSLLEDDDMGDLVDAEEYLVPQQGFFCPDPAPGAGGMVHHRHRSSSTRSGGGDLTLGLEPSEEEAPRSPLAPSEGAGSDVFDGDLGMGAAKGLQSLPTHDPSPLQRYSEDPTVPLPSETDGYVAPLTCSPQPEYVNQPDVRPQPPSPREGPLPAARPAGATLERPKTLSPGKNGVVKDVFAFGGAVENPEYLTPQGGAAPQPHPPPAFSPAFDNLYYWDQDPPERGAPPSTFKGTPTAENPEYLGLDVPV

| IC50 [1] | inhibition [2] | Activity [2] | Activity [3] | Activity [1] | Activity [4] | Activity [5] | Activity [6] | Activity (Rattus norvegicus) | Activity [7] | Activity [8] | Activity [9] | inhibition [3] | IC50 [10] | SMILES |
| --- | --- | --- | --- | --- | --- | --- | --- | --- | --- | --- | --- | --- | --- | --- |
| 11.6 µM |  |  |  |  |  |  |  |  |  |  |  |  |  | CC(C)=CCC/C(C)=C/CC/C(C)=C/CC/C(C)=C/CC/C(C)=C/CC/C(C)=C/CC/C(C)=C/Cc1cc(OS(=O)(=O)O)ccc1O |
| 9.79 µM | 45% |  |  |  |  |  |  |  |  |  |  |  |  | CC(C)=CCC/C(C)=C/CC/C(C)=C/CC/C(C)=C/CC/C(C)=C/CC/C(C)=C/CC/C(=C/Cc1cc(O)ccc1O)CO |
| 6.44 µM |  |  |  |  |  |  |  |  |  |  |  |  |  | CC(C)=CCC/C(C)=C/CC/C(C)=C/CC/C(C)=C/CC/C(C)=C/CC/C(C)=C/Cc1cc(OS(=O)(=O)O)ccc1O |
|  |  | inactive | inactive | inactive | inactive | inactive | inactive | inactive | inactive | inactive | inactive |  |  | CC(C)=CCC/C(C)=C/CC/C(C)=C/CC/C(C)=C/CCC1(C)C=Cc2cc(O)ccc2O1 (configuration not stated) |
| 14.5 µM |  |  |  |  |  |  |  |  |  |  |  | 65% | 91.9 µM | CC(C)=CCC/C(C)=C/CC/C(C)=C/CC/C(C)=C/CC/C(C)=C/Cc1cc(OS(=O)(=O)O)ccc1O |
|  |  | inactive | inactive | inactive | inactive | inactive | inactive | inactive | inactive | inactive | inactive |  |  | CC(C)=CCC/C(C)=C/CC/C(C)=C/CC/C(C)=C/CC/C(C)=C/CCC1(C)C=Cc2cc(O)ccc2O1 (configuration not stated) |
|  |  | inactive | inactive | inactive | inactive | inactive | inactive | inactive | inactive | inactive | inactive |  |  | CC(C)=CCC/C(C)=C/CC/C(C)=C/CC/C(C)=C/CC/C(C)=C/CC/C(C)=C/CCC1(C)C=Cc2cc(O)ccc2O1 (configuration not stated) |
